# Test results taken from patent US20080214606A1, “Methods for the Identification and Use of Compounds Suitable for the Treatment of Drug Resistant Cancer Cells” (The Government of the United States of America as …, priority 2004, published 2008).
# What was measured:
# [1] = test system: KB-V1 cells (over-express MDR1-P-gp) vs parental KB-3-1 cells; assay: MTT assay using the KB-3-1/KB-V1 cell pair; type: cell-based, human
# Method: Cell survival is measured by the MTT (3-(4,5-Dimethylthiazol-2-yl)-2,5-diphenyltetrazolium) Assay. Cells are seeded in 100 μl medium at a density of 5000 cells/well in 96 well plates, and serially diluted drug (with or without 2 μM PSC 833) is added the following day in 100 μl medium to give the indicated final concentration. Cells are then incubated for 72 hrs at 37° C. in 5% CO2, and the MTT assay is performed according to the manufacturer's instructions (Molecular Probes, Eugene, Oreg.).
# To test whether our approach using the NCI-60 does, in fact, identify new substrates, an MTT assay is used to test all top-scoring compounds that were available from DTP for follow-up experiments. KB-3-1, a human carcinoma cell line, and KB-V1, a multidrug resistant derivative of KB-3-1 that over-expresses MDR1-P-gp (Shen et al., 1986, J. Biol. Chem. 261:7762-7770), are used for the tests. […] This resistance of KB-V-1 cells is invariably reversible by PSC 833. The intrinsic fluorescence of one of the compounds, NSC 634791, allows for the measurement of the effect of MDR1 activity on its export from cells.
# [2] = molecular target: ABCB1 (Homo sapiens, UniProt P08183); assay: Correlation of ABCB1 expression with drug sensitivity across the NCI-60
# How it was run: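 SYBR Green real-time RT-PCR on 150 ng total RNA with 250 nM primers: RT 20 min at 50 °C, then 45 cycles; expression taken as crossing-point cycle number. Correlated with drug sensitivity of 1429 compounds across the cell panel; permutation p-values with step-down and step-up (FDR q-value) multiple-testing correction.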
# [3] = molecular target: T1, ABCD1 (Homo sapiens, UniProt P33897); assay: Correlation of ABCD1 expression with drug sensitivity across the NCI-60; type: cell-based; settings: Pearson correlation of ABCD1 expression with sensitivity of the 60 cell lines; 1429 compounds; inverse, p < 0.0001
# T1 construct: profiled in 60 diverse cancer cell lines (the NCI-60) using real-time RT-PCR; endogenous in cells; host or cells: NCI-60 human cancer cell lines
# Method: (§1) Expression levels are measured by real-time quantitative RT-PCR using the LightCycler RNA Amplification SYBR Green kit and a LightCycler machine (Roche Biochemicals, Indianapolis, Ind.). […] When possible, the amplicons are designed to encompass exon-intron boundaries to avoid amplification of genomic DNA. Since the Syber Green assay detects accumulation of double stranded DNA, primers are selected (from a battery consisting of about 200 primers) that amplified a single product of the correct size.
# (§2) RT-PCR is carried out on 150 ng total RNA, in the presence of 250 nM specific primers. Following reverse transcription (20 min at 50° C.), the PCR reaction consists of 45 cycles of denaturation (15 sec at 95° C.), annealing (30 sec at 58° C.), and elongation (30 sec at 72° C.). No-template (water) reaction mixtures are prepared as negative controls.
# (§3) During PCR amplification, fluorescence emission is measured and recorded in real time by the LightCycler. Crossing point values are calculated, using the LightCycler software package, by the Fit Points analysis method, with baseline fluorescence set at 1. The SyberGreen assay measures accumulation of double-stranded products, and the appearance of primer dimers limits quantitation at high cycle numbers. The specificity of amplified products is verified by melting-curve analysis and agarose gel electrophoresis (not shown). The raw results are expressed as number of cycles to reach the crossing point. If the desired product is not detected, the corresponding value is adjusted to crossing points indicating no expression. To assess the contribution of experimental artifacts, selected cell lines are assessed in replicate.
# (§4) The two are combined to form a joint dataset that includes 1429 compounds.
# (§5) To determine quantitatively how well the 47 genes cluster the cell lines by their tissues of origin, a statistical method is employed wherein the kappa statistic is used to indicate how well the observed clusters correspond to the nine tissue-of-origin classifications. […] To control the overall false type 1 error rate, both a step-down procedure (Westfall and Young, 1993, Resampling-Based Multiple Testing: Examples and Methods for p-value Adjustment (New York: Wiley)) and a step-up procedure (Reiner et al., 2003, Bioinformatics 19:368-375) were employed to adjust for multiple testing of all 47 genes simultaneously. In the Benjamini-Hochberg procedure the p-values are computed in the standard way by permutation, assuming that all distributions are exchangeable: the number of values in the permuted data with correlations over a threshold, divided by the number of compounds and by the number of permutations. In this analysis, the False Discovery Rate (q-value) at which each compound would be declared was calculated using the step-up procedure for positively correlated test statistics (again true because all correlations being compared are computed against the same ABC gene): in this procedure the first q-value for the largest correlation is the Bonferroni-corrected p-value for that gene; then further q-values are calculated as qj=max(pj*1429/j, qj-1). This procedure limits the expected proportion of false positives in the list 1, . . . , j to at most qj.
# [4] = molecular target: T2, ABCC2 (Homo sapiens, UniProt Q92887); assay: Correlation of ABCC2 expression with drug sensitivity across the NCI-60; type: cell-based; settings: Pearson correlation of ABCC2 expression with sensitivity of the 60 cell lines; 1429 compounds; inverse, p < 0.0001
# T2 construct: profiled in 60 diverse cancer cell lines (the NCI-60) using real-time RT-PCR; endogenous in cells; host or cells: NCI-60 human cancer cell lines
# Method: as §1, §2, §3, §4, §5
# [5] = molecular target: T3, ABCC3 (Homo sapiens, UniProt O15438); assay: Correlation of ABCC3 expression with drug sensitivity across the NCI-60; type: cell-based; settings: Pearson correlation of ABCC3 expression with sensitivity of the 60 cell lines; 1429 compounds; inverse, p < 0.0001
# T3 construct: profiled in 60 diverse cancer cell lines (the NCI-60) using real-time RT-PCR; endogenous in cells; host or cells: NCI-60 human cancer cell lines
# T3 sequence (O15438 whole entry): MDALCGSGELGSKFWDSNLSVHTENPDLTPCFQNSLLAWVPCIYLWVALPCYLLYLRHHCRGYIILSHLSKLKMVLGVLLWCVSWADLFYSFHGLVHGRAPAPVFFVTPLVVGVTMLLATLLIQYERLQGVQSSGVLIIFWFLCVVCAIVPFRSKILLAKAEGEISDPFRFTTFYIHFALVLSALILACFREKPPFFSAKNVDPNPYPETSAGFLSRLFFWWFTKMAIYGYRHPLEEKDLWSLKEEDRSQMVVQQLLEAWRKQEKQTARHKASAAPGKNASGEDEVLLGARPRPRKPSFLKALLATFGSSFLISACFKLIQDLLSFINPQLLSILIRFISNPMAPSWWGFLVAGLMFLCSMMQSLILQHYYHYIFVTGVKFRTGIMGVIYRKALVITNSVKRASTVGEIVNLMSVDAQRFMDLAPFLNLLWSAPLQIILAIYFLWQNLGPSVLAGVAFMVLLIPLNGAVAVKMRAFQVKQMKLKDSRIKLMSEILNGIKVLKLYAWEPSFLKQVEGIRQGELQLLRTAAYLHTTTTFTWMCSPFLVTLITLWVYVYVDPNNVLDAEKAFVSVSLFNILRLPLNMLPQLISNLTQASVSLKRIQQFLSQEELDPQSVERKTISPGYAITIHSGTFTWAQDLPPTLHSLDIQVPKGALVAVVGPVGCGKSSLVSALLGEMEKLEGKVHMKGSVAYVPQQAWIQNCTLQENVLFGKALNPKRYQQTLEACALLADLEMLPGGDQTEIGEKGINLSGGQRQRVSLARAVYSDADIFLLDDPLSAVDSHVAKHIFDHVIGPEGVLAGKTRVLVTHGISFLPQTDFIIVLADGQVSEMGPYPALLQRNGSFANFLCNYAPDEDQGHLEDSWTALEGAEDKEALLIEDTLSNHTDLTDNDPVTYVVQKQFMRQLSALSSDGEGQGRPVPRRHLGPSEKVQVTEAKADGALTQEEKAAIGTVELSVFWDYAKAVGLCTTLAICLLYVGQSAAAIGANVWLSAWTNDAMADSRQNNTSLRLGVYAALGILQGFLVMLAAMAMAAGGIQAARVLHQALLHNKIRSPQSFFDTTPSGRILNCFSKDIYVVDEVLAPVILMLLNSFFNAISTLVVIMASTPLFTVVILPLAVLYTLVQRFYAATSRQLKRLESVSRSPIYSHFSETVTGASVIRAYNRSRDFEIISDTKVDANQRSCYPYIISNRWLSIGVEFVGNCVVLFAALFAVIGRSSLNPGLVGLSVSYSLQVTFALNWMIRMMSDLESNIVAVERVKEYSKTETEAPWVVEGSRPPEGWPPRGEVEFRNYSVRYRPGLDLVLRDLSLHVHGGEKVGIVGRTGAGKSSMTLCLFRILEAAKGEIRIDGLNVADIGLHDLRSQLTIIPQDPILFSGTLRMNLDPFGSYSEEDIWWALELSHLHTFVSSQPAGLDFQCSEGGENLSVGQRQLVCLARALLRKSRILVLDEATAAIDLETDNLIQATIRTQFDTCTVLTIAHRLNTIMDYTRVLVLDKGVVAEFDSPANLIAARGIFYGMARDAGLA
# Method: as §1, §2, §3, §4, §5
# T2 sequence (Q92887 whole entry): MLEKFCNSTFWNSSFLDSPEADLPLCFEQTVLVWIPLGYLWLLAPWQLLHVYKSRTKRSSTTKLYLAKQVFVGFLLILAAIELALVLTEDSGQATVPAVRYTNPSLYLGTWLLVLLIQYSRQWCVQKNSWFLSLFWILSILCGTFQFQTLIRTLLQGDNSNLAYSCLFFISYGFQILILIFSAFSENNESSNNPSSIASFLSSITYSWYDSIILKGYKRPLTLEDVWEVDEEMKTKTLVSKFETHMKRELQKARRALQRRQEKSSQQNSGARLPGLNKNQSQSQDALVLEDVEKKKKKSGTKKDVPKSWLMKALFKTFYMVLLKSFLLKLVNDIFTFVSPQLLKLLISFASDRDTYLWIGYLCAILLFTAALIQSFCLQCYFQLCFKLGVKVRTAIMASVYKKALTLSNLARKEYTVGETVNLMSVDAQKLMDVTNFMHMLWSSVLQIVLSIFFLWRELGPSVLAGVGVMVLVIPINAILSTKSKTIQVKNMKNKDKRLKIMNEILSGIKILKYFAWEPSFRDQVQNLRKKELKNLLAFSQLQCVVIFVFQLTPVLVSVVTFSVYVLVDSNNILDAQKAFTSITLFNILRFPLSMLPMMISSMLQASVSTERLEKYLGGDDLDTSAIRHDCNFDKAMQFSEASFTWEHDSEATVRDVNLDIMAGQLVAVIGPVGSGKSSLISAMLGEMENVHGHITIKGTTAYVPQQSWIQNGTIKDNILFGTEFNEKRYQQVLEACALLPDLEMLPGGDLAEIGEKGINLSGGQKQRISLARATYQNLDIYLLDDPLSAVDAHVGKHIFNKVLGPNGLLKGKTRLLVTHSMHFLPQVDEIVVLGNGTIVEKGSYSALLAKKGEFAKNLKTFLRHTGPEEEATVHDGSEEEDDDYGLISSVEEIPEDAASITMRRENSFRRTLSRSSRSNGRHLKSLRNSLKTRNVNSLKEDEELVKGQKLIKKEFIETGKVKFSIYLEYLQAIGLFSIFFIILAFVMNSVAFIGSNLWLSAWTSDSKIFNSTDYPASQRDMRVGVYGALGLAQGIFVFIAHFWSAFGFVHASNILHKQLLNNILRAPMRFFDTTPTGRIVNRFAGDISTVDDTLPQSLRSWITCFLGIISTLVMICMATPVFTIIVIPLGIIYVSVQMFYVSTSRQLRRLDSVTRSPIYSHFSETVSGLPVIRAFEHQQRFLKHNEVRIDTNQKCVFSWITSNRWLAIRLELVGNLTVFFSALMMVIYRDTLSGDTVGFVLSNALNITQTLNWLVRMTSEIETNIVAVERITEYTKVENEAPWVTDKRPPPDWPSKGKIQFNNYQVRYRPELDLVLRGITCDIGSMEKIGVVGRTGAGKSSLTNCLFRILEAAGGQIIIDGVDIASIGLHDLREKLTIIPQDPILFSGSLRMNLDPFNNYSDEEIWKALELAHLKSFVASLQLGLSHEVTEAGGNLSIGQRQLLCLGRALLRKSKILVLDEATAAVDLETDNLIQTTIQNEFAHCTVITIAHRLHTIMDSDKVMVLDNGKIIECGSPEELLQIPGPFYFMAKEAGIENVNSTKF
# T1 sequence (P33897 whole entry): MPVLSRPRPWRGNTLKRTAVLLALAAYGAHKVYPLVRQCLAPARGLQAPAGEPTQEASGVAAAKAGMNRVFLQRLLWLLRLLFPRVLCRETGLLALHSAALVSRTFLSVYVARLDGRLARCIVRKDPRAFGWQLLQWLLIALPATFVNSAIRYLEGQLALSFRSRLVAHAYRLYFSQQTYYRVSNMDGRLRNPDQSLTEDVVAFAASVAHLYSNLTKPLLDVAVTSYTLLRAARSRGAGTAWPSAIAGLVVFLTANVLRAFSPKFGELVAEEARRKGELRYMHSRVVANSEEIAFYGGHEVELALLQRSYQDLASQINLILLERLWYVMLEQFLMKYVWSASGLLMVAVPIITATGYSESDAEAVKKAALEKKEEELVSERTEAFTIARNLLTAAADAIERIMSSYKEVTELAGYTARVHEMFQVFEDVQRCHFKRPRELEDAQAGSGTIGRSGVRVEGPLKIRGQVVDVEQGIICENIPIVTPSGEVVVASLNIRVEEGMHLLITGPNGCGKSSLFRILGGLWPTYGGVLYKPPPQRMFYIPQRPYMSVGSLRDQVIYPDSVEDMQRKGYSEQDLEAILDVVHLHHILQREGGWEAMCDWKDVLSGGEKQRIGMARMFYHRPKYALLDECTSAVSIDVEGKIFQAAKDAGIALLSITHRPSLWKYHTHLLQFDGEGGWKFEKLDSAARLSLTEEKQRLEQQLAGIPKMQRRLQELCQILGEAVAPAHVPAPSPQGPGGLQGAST
# ABCB1, sequence (P08183 whole entry): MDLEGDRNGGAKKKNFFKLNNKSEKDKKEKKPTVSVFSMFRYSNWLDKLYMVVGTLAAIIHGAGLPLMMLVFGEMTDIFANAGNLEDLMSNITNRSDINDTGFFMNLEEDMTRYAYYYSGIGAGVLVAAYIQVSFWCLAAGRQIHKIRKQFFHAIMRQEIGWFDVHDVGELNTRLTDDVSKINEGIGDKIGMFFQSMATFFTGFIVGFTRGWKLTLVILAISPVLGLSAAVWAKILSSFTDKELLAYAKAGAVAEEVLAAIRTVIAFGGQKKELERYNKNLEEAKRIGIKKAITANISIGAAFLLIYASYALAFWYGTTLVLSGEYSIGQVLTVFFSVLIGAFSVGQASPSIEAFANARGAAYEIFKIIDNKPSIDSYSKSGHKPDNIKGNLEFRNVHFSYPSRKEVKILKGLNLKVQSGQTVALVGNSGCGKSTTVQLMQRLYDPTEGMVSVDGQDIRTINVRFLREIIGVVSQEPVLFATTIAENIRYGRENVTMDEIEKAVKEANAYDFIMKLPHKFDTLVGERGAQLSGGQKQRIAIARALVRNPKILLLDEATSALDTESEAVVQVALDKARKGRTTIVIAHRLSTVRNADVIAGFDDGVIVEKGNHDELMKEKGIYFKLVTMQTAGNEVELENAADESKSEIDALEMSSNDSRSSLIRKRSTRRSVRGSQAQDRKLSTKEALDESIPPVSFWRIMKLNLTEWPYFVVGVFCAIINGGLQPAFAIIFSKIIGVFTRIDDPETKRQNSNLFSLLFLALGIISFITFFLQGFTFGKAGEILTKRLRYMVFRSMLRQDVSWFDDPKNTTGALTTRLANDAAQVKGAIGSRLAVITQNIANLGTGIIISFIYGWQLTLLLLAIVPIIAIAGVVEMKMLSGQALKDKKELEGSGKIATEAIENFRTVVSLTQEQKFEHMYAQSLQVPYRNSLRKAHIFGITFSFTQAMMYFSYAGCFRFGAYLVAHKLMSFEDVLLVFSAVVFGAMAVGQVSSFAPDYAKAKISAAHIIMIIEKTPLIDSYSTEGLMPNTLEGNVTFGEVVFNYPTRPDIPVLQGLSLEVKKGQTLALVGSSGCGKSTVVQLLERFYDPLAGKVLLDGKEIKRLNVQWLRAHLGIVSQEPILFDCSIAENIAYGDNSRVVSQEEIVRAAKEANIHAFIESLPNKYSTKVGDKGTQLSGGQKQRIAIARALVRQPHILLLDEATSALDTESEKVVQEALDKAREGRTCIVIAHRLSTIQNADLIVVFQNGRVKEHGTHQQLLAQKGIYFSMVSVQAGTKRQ
structure (smiles),measurement,setting,value
COc1ccc(NC(=S)N=Nc2c(O)[nH]c3c(Cl)cc(Cl)cc23)cc1 [NSC 73304],Effect of PSC 833 on the heightened sensitivity of KB-V1 cells,[1]; MTT assay with 2 μM PSC 833,completely reverses sensitivity
same,Sensitivity of KB-V1 cells relative to parental KB-3-1 (potentiation by ABCB1),"[1]; MTT assay, 72 hrs",several-fold more sensitive
NC(=S)N=Nc1c(O)[nH]c2c(Cl)cc(Cl)cc12 [NSC 73305],Effect of PSC 833 on the heightened sensitivity of KB-V1 cells,[1]; MTT assay with 2 μM PSC 833,completely reverses sensitivity
same,Sensitivity of KB-V1 cells relative to parental KB-3-1 (potentiation by ABCB1),"[1]; MTT assay, 72 hrs",several-fold more sensitive
O=c1cc(O)ccn1[C@@H]1O[C@H](CO)[C@@H](O)[C@H]1O [NSC 126849],Pearson's Correlation Coeff,[2],0.2357
same,Correlation,[3],−0.4214
NC(=O)c1[nH]nc([C@@H]2O[C@H](CO)[C@@H](O)[C@H]2O)c1O [NSC 143095],Pearson's Correlation Coeff,[2],0.2763
same,Correlation,[3],−0.5337
O=[N+]([O-])c1cccc(/C=N/Nc2ccc3ccccc3n2)c1O [NSC 168468],Correlation of antiproliferative activity with ABCB1 expression,[2],0.4839
same,Effect of PSC 833 on the heightened sensitivity of KB-V1 cells,[1]; MTT assay with 2 μM PSC 833,completely reversed sensitivity
same,Sensitivity of KB-V1 cells relative to parental KB-3-1 (potentiation by ABCB1),"[1]; MTT assay, 72 hrs",equivalent to or greater than the potentiation effect observed for NSC 73306
O=C1c2cccc(NCCNCCO)c2C(=O)c2cccc(NCCNCCO)c21 [NSC 363997],Effect of PSC 833 on the resistance of KB-V1 cells,[1]; MTT assay with 2 μM PSC 833,reverses the resistance
same,Resistance of KB-V1 cells in comparison with the parental line,"[1]; MTT assay, 72 hrs",resistant
COc1cccc2c1C(=O)C=CC2=O [NSC 618315],Correlation,[4],−0.4247
Cn1c(=O)nc2n(-c3ccc(Cl)cc3)c3cc(Cl)ccc3nc-2c1=O [NSC 627991],Correlation,[5],−0.4741
CCCCCCCCCCCCCC(=O)NO [NSC 634458],Correlation,[4],−0.4326
COC(=O)[C@@]12C(=O)C=CC(=O)[C@@H]1C1C(=CC2COC(C)=O)O[C@@H]2OC3(CCCCC3)O[C@H]12 (some centres unmarked) [NSC 637399],Correlation,[4],−0.4969
CN(C)CCC(=O)N1C/C(=C\c2ccc(Cl)c(Cl)c2)C(=O)/C(=C/c2ccc(Cl)c(Cl)c2)C1.Cl [NSC 638645],Correlation,[4],−0.5028
CCN(CC)CC(O)CNc1ccc(NCC2CO2)c2c1C(=O)c1ccccc1C2=O (centres unmarked) [NSC 639366],Correlation,[5],−0.5003
COc1cc(/C=C2\CCC(CN(C)C)C2=O)ccc1OC(=O)c1ccccc1.Cl (centres unmarked) [NSC 639518],Correlation,[4],−0.4350
CC(C)Cc1ccc(C(C)/C=C2\CCC(CN3CCOCC3)C2=O)cc1.Cl (centres unmarked) [NSC 639976],Correlation,[4],−0.4670
CC(C)Cc1ccc(C(C)/C=C2\CCC(CN3CCCCC3)C2=O)cc1.Cl (centres unmarked) [NSC 639978],Correlation,[4],−0.5210
O=C(CC(=O)c1ccccc1NC1=Cc2ccccc2C(=O)C1=O)C(=O)NC1=C(Cl)C(=O)c2ccccc2C1=O [NSC 641245],Correlation,[5],−0.5702
c1ccc2c(c1)Nc1cccc3c1c-2nc1ccccc13 [NSC 670692],Correlation,[3],−0.4001
Cc1ccc(C2=CC(=O)/C(=C\C(=O)c3ccc(Br)cc3)O2)c(C)c1 [NSC 674919],Correlation,[4],−0.4608
CC(C)OC(=O)c1ccc(CCC2=CC(=O)C=CC2=O)cc1 [NSC 684496],Correlation,[4],−0.4340
O=C1/C(=C/c2ccc(F)cc2)CNC/C1=C\c1ccc(F)cc1 [NSC 685126],Correlation,[3],−0.4464
CN(C)CCCNc1ccc2c(=O)n(CCN(C)C)c(=O)n3c4ccccc4c(=O)c1c23 [NSC 687308],Correlation,[3],−0.4236
CC1(C)OC2C(CO[Si](C)(C)C(C)(C)C)OC(n3cnc4c(N)nc(C#C[Si](C)(C)C)nc43)C2O1 (centres unmarked) [NSC 687496],Correlation,[4],−0.4544
CCCCCCOc1ccc(C(=O)NO)cc1 [NSC 692754],Pearson's Correlation Coeff,[2],0.4616
same,Correlation,[4],−0.4016
same,Correlation,[3],−0.4680
CCCCCCOc1ccc(C(=O)N(C)O)cc1 [NSC 692758],Pearson's Correlation Coeff,[2],0.4825
same,Correlation,[3],−0.5012
CN(O)C(=O)c1ccc(OCc2cccc(Cl)c2)cc1 [NSC 692759],Pearson's Correlation Coeff,[2],0.4149
same,Correlation,[3],−0.5034
CCOC(=O)c1oc2cc3c(c4c2c1-c1ccccc1N4C)C=CC(C)(C)O3 [NSC 693215],Correlation,[4],−0.4377
CC1=NN(c2nc(N)nc(CBr)n2)C(C)(C)C1 [NSC 696916],Correlation,[4],−0.4224
